The source made the active and inactive calls.
Experiments:
[1] = growth suppression of beta-catenin-knockout colon cells, dose response, cell-based, HCT116, human colon tumor (AID 1045); format: functional;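 also: HCT116 colon tumor cells with beta catenin knocked out; cells exposed to compound for 60 hours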
[2] = growth suppression of PTEN-null colon cells, dose response, cell-based, HCT116 PTEN knockout (AID 1047); format: functional;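 also: HCT116 colon tumor cells with PTEN knocked out; cells exposed to compound for 60 hours before readout; potency for loss of cell viability measured by luminescence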
[3] = HEp-2 cell cytotoxicity, dose response, cytotoxicity control for RSV inhibitor project, HTS (AID 2410); format: functional; details: human respiratory syncytial virus
[4] = biological target: T1, Calpain-2 catalytic subunit (Sus scrofa, UniProt P43367); assay: pig calpain II inhibitor potency, dose response, biochemical, fluorogenic peptide substrate (AID 1420); format: functional
T1 sequence (P43367 whole entry): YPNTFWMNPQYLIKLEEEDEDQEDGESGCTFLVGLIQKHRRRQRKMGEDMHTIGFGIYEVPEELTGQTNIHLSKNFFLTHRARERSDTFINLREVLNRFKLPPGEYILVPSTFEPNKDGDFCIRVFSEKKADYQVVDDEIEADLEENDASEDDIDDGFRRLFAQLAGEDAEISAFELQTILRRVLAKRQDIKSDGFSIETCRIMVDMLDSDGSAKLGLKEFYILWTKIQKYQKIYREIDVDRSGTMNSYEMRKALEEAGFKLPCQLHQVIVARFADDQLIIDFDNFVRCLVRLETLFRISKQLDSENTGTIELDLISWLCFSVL

[5] = cytotoxicity toward NIH3T3 fibroblasts, dose response, counter-screen, cell-based, ATP luminescence, mouse fibroblasts (AID 2010); format: functional;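 also: cells exposed to compound for about 90 hours before reading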
[6] = inhibitors of intracellular T. cruzi replication, confirmation, NIH3T3 host cells, beta-gal luminescence (AID 2044); format: functional, cell-based;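 also: intracellular parasites grown in NIH/3T3 mouse fibroblasts as host cells; luminescent beta-galactosidase reporter signal from transgenic T. cruzi replicating inside host cells; inhibitors lower the luminescence signal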
[7] = inhibitors of SNCA 5'UTR-driven reporter translation, confirmation, H4 neuroglioma cells, luminescence (AID 1988); format: functional, cell-based
[8] = inhibitors of firefly luciferase expression or activity, dose response, H4 neuroglioma cells, luminescence (AID 1990); format: functional, cell-based
[9] = Luminescence Cell-Based Dose Response HTS to Identify Inhibitors of 5'UTR Stem-Loop Driven Prion Protein mRNA Translation in H4 Neuroglioblastoma Cells. [Related pubchem assays: 1827 (Project Summary), 1813 (Primary HTS)]; format: functional
[10] = biological target: T2, Rac GTPase-activating protein 1 (Homo sapiens, UniProt Q9H0H5); assay: MgcRacGAP GTPase-activating activity inhibitors, confirmation, biochemical, ADP Hunter fluorescence, primary and confirmatory (AID 624330); format: functional
T2 sequence (Q9H0H5 whole entry): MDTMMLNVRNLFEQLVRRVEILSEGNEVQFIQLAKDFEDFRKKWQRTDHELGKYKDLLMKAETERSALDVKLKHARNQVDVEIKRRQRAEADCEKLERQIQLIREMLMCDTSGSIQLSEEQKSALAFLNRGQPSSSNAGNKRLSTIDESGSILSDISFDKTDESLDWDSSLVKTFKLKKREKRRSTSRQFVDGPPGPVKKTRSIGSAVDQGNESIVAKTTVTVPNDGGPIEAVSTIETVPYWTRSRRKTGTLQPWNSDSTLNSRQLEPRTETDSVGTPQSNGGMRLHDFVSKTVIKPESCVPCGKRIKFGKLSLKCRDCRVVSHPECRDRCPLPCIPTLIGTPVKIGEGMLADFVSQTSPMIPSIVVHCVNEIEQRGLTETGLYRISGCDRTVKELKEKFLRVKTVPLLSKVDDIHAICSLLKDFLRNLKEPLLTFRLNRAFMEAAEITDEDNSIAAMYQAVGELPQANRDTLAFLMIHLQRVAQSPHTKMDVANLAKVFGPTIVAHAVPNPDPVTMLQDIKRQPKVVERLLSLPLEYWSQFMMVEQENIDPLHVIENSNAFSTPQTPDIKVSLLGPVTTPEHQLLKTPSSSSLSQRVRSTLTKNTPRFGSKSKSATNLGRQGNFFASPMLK

[11] = NIH-3T3 fibroblast cytotoxicity, dose response, cytotoxicity control, cell-based, fluorescence, Alamar Blue, secondary assay (AID 2327); format: functional;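 also: NIH-3T3 mouse fibroblasts cultured with fluconazole at 8 µg/mL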
Cytochrome P450 2C9 = Cytochrome P450 2C9 (Homo sapiens, UniProt P11712)
Chain of Cytochrome P450 2C9 (P11712 whole entry): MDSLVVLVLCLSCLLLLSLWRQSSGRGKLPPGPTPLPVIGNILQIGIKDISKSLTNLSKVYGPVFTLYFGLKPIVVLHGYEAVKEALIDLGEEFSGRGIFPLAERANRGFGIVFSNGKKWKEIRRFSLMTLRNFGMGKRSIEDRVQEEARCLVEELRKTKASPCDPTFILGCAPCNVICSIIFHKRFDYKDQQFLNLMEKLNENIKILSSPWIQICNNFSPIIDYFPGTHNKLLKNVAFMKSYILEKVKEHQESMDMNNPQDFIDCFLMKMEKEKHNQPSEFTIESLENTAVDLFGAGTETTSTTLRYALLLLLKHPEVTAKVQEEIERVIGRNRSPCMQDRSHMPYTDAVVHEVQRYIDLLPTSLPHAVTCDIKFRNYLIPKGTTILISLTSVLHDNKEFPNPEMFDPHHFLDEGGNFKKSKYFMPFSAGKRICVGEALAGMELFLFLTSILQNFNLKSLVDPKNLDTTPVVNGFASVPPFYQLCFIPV

INS1 = assay: beta cell apoptosis inhibitors, cytokine rescue, dose response, luminescence, retest (AID 449756); format: functional, cell-based; details: Rattus norvegicus;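 also: cell death triggered by IL-1 beta plus TNF-alpha plus IFN-gamma mixture; protective hits raise ATP signal compared with cytokine alone wells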
Streptococcus = assay: Group A Streptococcus viability loss, dose response, counter-screen for streptokinase expression inhibitor project, luminescence, BacTiterGlo (AID 1915); format: functional, organism-based;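 also: potency for reduction of bacterial viability or growth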
[12] = Luminescence Cell-Based Dose Retest to Confirm Inhibitors of Cancer Stem Cells. [Related pubchem assays (depositor defined):AID2717, AID2721]; format: functional; details: Homo sapiens
[13] = system: Streptococcus sp. 'group A'; assay: growth inhibition of control SK(-) GAS strain, dose response, counter-screen for streptokinase expression inhibitor project, luminescence, kanamycin, BacTiterGlo, confirmation (AID 1900); format: functional, organism-based

SMILES: O=c1c2ccccc2nc(CSc2nnnn2-c2ccccc2)n1-c1ccccc1
- EC50 [1]: 17.6 µM (active)
- EC50 [2]: 18.1 µM (active)

SMILES: Cc1c2c(nc3ccccc13)CCC(C)C2 (stereo not given)
- CC50 [3]: > 50 µM (active)

SMILES: CN(C1CCCCC1)S(=O)(=O)c1ccc(S(=O)(=O)N2CCCC2)cc1
- IC50 [4]: 10.4 µM (not active)

SMILES: C=CCNc1cnn(-c2ccc(C)cc2)c(=O)c1Sc1ccc(C)cc1
- IC50 [4]: > 50 µM (not active)

SMILES: CC1CCCCN1C(=O)c1cc(-c2ccc(Cl)c(Cl)c2)on1 (stereo not given)
- IC50 [4]: 3.9 µM (not active)

SMILES: C=CCn1c(SCC(C)=O)nc2scc(-c3ccc(C)o3)c2c1=O
- CC50 [3]: 13.5 µM (active)

SMILES: Cc1ccnc(NC(=O)CCCOc2ccc(Cl)cc2C)c1
- IC50 [4]: 0.444 µM (not active)

SMILES: C/C(=N\NC(=O)COc1ccc(C(C)(C)C)cc1)c1ccccc1
- IC50 [4]: 5.74 µM (not active)

SMILES: O=[N+]([O-])C(=C1Nc2ccccc2N1)C(Cl)=C(Cl)Cl
- IC50 [4]: 27.8 µM (not active)

SMILES: CCOc1cc(C(=O)NCC(C)(C)CNC(=O)c2cc(OCC)c(OCC)c(OCC)c2)cc(OCC)c1OCC
- CC50 [3]: 27.7 µM (active)

SMILES: N#CC1=C(N)Oc2cc(O)ccc2C1C1CCCCC1 (stereo not given)
- EC50 [1]: 13.2 µM (active)
- EC50 [2]: 12.1 µM (active)

SMILES: OC(COc1ccc2cc(Br)ccc2c1)CN1CCCC1 (stereo not given)
- EC50 [5]: 11.5 µM (active)
- EC50 [1]: 15.6 µM (active)
- EC50 [6]: 3.4 µM (active)
- EC50 [2]: 17 µM (active)

SMILES: Oc1ccc(Cl)cc1-c1cc(C(F)(F)C(F)F)nc(-c2ccccc2)n1
- EC50 [7]: > 120 µM (not active)
- EC50 [8]: > 120 µM (not active)
- EC50 [9]: > 120 µM (not active)

SMILES: CC(=O)O/N=C/c1c(NCc2ccccc2)nc2c(C)cccn2c1=O
- CC50 [3]: 31.1 µM (active)

SMILES: CCOC(=O)c1c(NC(=O)C2=C(C)N=C(S)NC2c2ccc(F)cc2)sc(C)c1C (stereo not given)
- EC50 [7]: > 120 µM (not active)
- EC50 [8]: > 120 µM (not active)
- EC50 [9]: > 120 µM (not active)

SMILES: Cc1cccc(Oc2ccc(S(=O)(=O)N3CCCCC3)cc2N)c1
- IC50 [4]: 11.2 µM (not active)

SMILES: FC(F)(F)c1cccc(N2CCC(/N=C/N3CCCCCC3)=N2)c1
- IC50 [10]: 56.4 µM (active)

SMILES: CCc1ccc(/C(C)=N\Nc2ccc([N+](=O)[O-])cc2)cc1
- EC50 [11]: > 160 µM (inactive)

SMILES: Cc1cc(N)n(-c2ccc3ccccc3c2)n1
- AC50 (Cytochrome P450 2C9): 35.5 µM (inconclusive)

SMILES: CS(=O)(=O)N1CCc2cc(NC(=O)c3ccc(Cl)cc3Cl)ccc21
- IC50 [4]: 13.7 µM (not active)

SMILES: Cc1cccc(NC(=O)Nc2cccc(C#N)c2)n1
- CC50 [3]: > 50 µM (active)

SMILES: CCCCc1nc2ccccc2c(NC(=O)CN2CCN(C)CC2)c1CCC
- IC50 [10]: 50.3 µM (active)

SMILES: Cc1ccc(N2NC3(CCN(C(N)=O)CC3)NC2=O)cc1
- EC50 [11]: 28.6 µM (active)

SMILES: COc1ccc2cc(Br)ccc2c1CC(=O)NC1CC(C)(C)NC(C)(C)C1
- EC50 [1]: 20.8 µM (active)
- EC50 [2]: 20.4 µM (active)

SMILES: COc1cc(/C=N/NC(=O)c2ccc3c(c2)OCO3)ccc1O
- IC50 [10]: 28.5 µM (active)

SMILES: COc1ccc(C2/C=C\CN(C(=O)Nc3ccc(C(F)(F)F)cc3)CC(=O)N2Cc2ccc(F)cc2)cc1 (stereo not given)
- EC50 [7]: 10.8 µM (active)
- AC50 (INS1): 6.64 µM (active)
- EC50 [8]: 10.2 µM (active)
- EC50 [9]: > 120 µM (not active)

SMILES: O=C(C1=C[C@H](c2ccc(C(F)(F)F)cc2)C[C@H](OCc2ccc(CO)cc2)O1)N1CCCCCCC1
- IC50 [4]: 14.8 µM (not active)

SMILES: Cc1nc(C(=O)O)nn1-c1ccc([N+](=O)[O-])cc1
- EC50 [7]: > 120 µM (not active)
- EC50 [8]: > 120 µM (not active)
- EC50 [9]: 118 µM (active)

SMILES: CN(C)c1ccc(/C=N/N2CCN(Cc3ccccc3Cl)CC2)cc1
- IC50 [10]: 69.6 µM (active)

SMILES: CC1=CC(C)(C)Nc2ccccc21
- EC50 [7]: > 120 µM (not active)
- EC50 [5]: > 60 µM (not active)
- EC50 [6]: 4.5 µM (active)
- EC50 [8]: > 120 µM (not active)
- EC50 [9]: > 120 µM (not active)

SMILES: Oc1ccc(C=NNc2nc3ccccc3s2)c(O)c1
- IC50 [10]: 88.4 µM (active)

SMILES: Cc1ccc(C)c(OCC(O)CN2CCC(CN3C(=O)c4cccc5cccc(c45)C3=O)CC2)c1 (stereo not given)
- EC50 [1]: 4.8 µM (active)
- EC50 [2]: 4.42 µM (active)

SMILES: COc1ccc(Br)cc1CN1CCN(C(=O)c2ccc(F)cc2)CC1
- IC50 [10]: 212 µM (active)

SMILES: CCc1ccc2c(c1)c1nnc(NN)nc1n2CC
- EC50 [1]: 31.1 µM (active)
- EC50 [2]: 30.8 µM (active)

SMILES: COc1cc(C=O)ccc1OCCCOc1ccccc1C(=O)O
- AC50 (Cytochrome P450 2C9): 17.8 µM (inconclusive)

SMILES: O=C(COC(=O)CC1c2ccccc2CCN1S(=O)(=O)c1ccccc1)Nc1ccccc1 (stereo not given)
- IC50 [4]: 8.09 µM (not active)

SMILES: N#Cc1cc([N+](=O)[O-])ccc1NC(=O)COC(=O)C12CC3CC(CC(C3)C1)C2
- IC50 [4]: 14.4 µM (not active)

SMILES: CC(=O)c1nn(-c2cccc(Br)c2)cc1C(=O)c1ccc(C)cc1
- EC50 [11]: > 150 µM (inactive)

SMILES: COc1ccc(CN2CCN(Cc3c[nH]c4ccccc34)CC2)c(OC)c1
- IC50 [10]: 104 µM (active)

SMILES: O=C(N/N=C/c1ccc(O)cc1)c1ccc(COc2cc(Cl)ccc2Cl)o1
- AC50 (Cytochrome P450 2C9): 6.31 µM (inconclusive)

SMILES: C/C(=N\Nc1ccc([N+](=O)[O-])cc1)c1ccc(N)cc1
- IC50 [10]: 109 µM (active)

SMILES: O=[N+]([O-])c1cc(C(F)(F)F)ccc1NCCN=C(S)Nc1ccc(Cl)cc1
- EC50 (Streptococcus): 7.65 µM (active)
- AC50 [12]: 3.04 µM (active)
- EC50 [13]: 7.05 µM (active)
- EC50 [1]: 14.9 µM (active)
- EC50 [2]: 11.7 µM (active)

SMILES: CCOC(=S)SCC(=O)Nc1nc(-c2ccc(Br)cc2)cs1
- EC50 [7]: 5.28 µM (active)
- AC50 [12]: 0.722 µM (active)
- EC50 [8]: 8.41 µM (active)
- EC50 [9]: 8.99 µM (active)

SMILES: COc1cc(CNc2ncc(-c3ccc(Br)cc3)n2C)cc(OC)c1O
- IC50 [10]: 52 µM (active)

SMILES: C=CCn1c(S)nnc1-c1cc2cccc(OC)c2o1
- CC50 [3]: 21.4 µM (active)

SMILES: Nc1ccc(S(=O)(=O)Nc2cnc3ccccc3n2)cc1 [SULFAQUINOXALINE]
- AC50 (Cytochrome P450 2C9): 3.98 µM (inconclusive)

SMILES: Oc1c([C@H](Nc2ccccn2)c2ccccc2)ccc2cccnc12
- AC50 (Cytochrome P450 2C9): 6.31 µM (inconclusive)

SMILES: CC(=O)NC(=S)Nc1ccc(-c2nc3ccc(C)cc3s2)cc1
- EC50 [1]: 112 µM (active)
- EC50 [2]: 50 µM (active)

SMILES: Oc1ccc(NCc2ccccc2OCc2ccccc2F)cc1
- IC50 [10]: 71.4 µM (active)

SMILES: COc1ccc(NC(=O)C2CCCN(S(=O)(=O)c3cccc4cccnc34)C2)c(OC)c1 (stereo not given)
- IC50 [4]: 4.57 µM (not active)

SMILES: CCc1ccc(-c2cc(C(=O)NCCCn3ccnc3)c3ccccc3n2)s1
- CC50 [3]: 28.4 µM (active)

SMILES: CCOc1ccc(C(=O)C[n+]2ccccc2C)cc1
- EC50 [7]: > 120 µM (not active)
- EC50 [8]: > 120 µM (not active)

SMILES: Cc1ccccc1N1C(=O)C(Oc2ccc(Cl)cc2)C1CNCCCOC(C)C (stereo not given)
- EC50 [7]: > 120 µM (not active)
- EC50 [8]: 27 µM (active)
- EC50 [9]: 119 µM (active)

From ChEMBL document CHEMBL1201862, “PubChem BioAssay data set” (2004)
